Data set [1] has as its target T1, human VPAC2 (Homo sapiens, UniProt P41587).
T1 construct: expressed in transfected cells
T1 sequence (P41587 24-438): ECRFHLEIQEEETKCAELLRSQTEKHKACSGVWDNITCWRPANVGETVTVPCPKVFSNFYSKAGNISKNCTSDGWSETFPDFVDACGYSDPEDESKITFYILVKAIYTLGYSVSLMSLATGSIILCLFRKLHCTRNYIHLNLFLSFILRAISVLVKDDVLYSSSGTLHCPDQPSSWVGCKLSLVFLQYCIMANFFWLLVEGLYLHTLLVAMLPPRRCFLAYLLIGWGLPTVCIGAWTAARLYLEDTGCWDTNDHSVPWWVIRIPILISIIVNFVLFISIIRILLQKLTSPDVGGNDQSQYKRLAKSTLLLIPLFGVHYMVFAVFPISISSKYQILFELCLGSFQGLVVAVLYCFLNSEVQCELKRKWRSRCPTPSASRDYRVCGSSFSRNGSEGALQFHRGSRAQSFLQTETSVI
In words: Alpha screen cAMP assay, in vitro potency at human VPAC2 receptor. Type of data set: cell-based. The following applies: cAMP generation; single result from two analyses in a single run, some values average of more than one experiment. For orientation: cAMP levels reflect the balance of adenylyl cyclase and phosphodiesterase activity.

Data set [2] addresses T1, human VPAC2. In words: Filter binding assay, 125I-labeled VIP tracer, VPAC2 membranes. The following applies: read-out: Human VPAC2 Receptor Binding (IC50; nM).
Data set [3] has as its target T2, human PAC1 (Homo sapiens, UniProt P41586).
T2 construct: expressed in transfected cells
T2 sequence (P41586 21-468): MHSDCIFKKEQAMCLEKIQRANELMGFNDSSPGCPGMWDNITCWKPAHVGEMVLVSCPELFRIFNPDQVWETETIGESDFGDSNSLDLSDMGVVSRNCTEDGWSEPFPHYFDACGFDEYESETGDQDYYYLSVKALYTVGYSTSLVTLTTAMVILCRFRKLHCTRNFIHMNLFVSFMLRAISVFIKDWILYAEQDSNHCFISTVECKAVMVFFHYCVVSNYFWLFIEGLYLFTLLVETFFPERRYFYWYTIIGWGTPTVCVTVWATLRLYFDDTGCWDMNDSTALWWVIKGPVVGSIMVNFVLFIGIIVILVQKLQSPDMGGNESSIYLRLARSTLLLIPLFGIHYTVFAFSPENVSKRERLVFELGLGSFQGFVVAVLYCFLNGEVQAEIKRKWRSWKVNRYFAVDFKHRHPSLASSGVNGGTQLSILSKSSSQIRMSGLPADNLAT
In words: Filter binding assay, 125I-labeled PACAP-27 tracer, PAC1 membranes. The following applies: read-out: Human PAC1 Receptor Binding (IC50; nM).

Data set [4] deals with T3, rat VPAC2 receptor (Rattus norvegicus, UniProt P35000).
T3 construct: expressed in transfected cells; host or cells: CHO-PO (transient, Lipofectamine)
T3 sequence (P35000 23-437): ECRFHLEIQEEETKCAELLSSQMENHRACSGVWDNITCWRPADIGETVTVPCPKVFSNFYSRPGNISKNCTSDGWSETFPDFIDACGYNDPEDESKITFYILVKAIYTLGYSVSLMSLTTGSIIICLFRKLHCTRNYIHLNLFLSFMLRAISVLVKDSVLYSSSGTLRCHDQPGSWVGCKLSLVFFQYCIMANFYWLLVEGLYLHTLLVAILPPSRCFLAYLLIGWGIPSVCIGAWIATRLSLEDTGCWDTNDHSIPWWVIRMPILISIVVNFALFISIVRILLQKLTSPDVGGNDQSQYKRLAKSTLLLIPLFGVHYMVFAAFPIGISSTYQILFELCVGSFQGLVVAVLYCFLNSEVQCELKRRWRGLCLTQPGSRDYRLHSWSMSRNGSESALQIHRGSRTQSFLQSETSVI
In words: DiscoveRx cAMP assay, in vitro potency at rat VPAC2 receptor. Format: cell-based. Conditions: CHO-PO cells transiently transfected with rat VPAC2; cAMP generation; mean of two independent runs. How it is done:
DiscoveRx: CHO-PO cells are transiently transfected with rat VPAC1 or VPAC2 receptor DNA using commercially available transfection reagents (Lipofectamine from Invitrogen). The cells are seeded at a density of 10,000/well in a 96-well plate and are allowed to grow for 3 days in […] culture medium. At day 3, the assay is performed.
On the day of the experiment, the medium is removed. Also, the cells are washed twice. The cells are incubated in assay buffer plus IBMX for 15 minutes at room temperature. Afterwards, the stimuli are added and are dissolved in assay buffer. The stimuli are present for 30 minutes. Then, the assay buffer is gently removed. The cell lysis reagent of the DiscoveRx cAMP kit is added. Thereafter, the standard protocol for developing the cAMP signal as described by the manufacturer is used (DiscoveRx Inc., USA). EC50 values for cAMP generation are calculated from the raw signal or are based on absolute cAMP levels as determined by a standard curve performed on each plate.
Results for each agonist are the mean of two independent runs. Rat VPAC1 and VPAC2 results are only generated using the DiscoveRx assay.

The target of data set [5] is T4, human VPAC1 (Homo sapiens, UniProt P32241).
T4 construct: expressed in transfected cells
T4 sequence (P32241 31-457): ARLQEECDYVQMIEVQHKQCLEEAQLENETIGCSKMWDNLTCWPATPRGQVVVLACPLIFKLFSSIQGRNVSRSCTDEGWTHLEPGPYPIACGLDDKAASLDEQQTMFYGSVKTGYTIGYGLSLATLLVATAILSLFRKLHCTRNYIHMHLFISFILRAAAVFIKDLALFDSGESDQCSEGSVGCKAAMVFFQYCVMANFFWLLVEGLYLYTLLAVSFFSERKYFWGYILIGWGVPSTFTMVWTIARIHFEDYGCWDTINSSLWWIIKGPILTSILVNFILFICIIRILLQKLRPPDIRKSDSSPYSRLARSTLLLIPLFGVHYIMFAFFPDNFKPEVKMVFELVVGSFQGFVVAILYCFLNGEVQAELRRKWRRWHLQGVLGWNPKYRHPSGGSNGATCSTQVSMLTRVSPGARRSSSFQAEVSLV
Put plainly: Filter binding assay, 125I-labeled VIP tracer, VPAC1 membranes. The following applies: read-out: Human VPAC1 Receptor Binding (IC50; nM).

Data set [6] can be described thus: Rat serum stability (activity remaining, CHO-VPAC2 DiscoveRx read-out). Type of data set: in vitro ADME. A digest of the protocol:
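Peptides preincubated overnight in rat serum at 37 °C without aprotinin versus 4 °C with aprotinin, then tested as 11-point 5× dilutions in duplicate on CHO-VPAC2 cells, 30 min at RT. cAMP measured by DiscoveRx kit against standards; EC50 derived for each aliquot.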

The structures appear in SMILES notation. Square brackets hold non-standard residues; d marks the D form. Peptide text beside a SMILES is read from it. * marks the point of attachment. Orn = NCCC[C@H](N)C(=O)O; Hexanoyl = CCCCCC(=O)*; Aib = CC(C)(N)C(=O)O Bounds are passed on as bounds.

Take `CCCCCC(=O)N[C@@H](Cc1c[nH]cn1)C(=O)N[C@@H](CO)C(=O)N[C@@H](CC(=O)O)C(=O)N[C@@H](C)C(=O)N[C@H](C(=O)N[C@@H](Cc1ccccc1)C(=O)N[C@H](C(=O)N[C@@H](CC(=O)O)C(=O)N[C@@H](CC(N)=O)C(=O)N[C@@H](Cc1ccc(O)cc1)C(=O)N[C@H](C(=O)N[C@@H](CCCN)C(=O)N[C@@H](CC(C)C)C(=O)N[C@@H](CCCNC(=N)N)C(=O)NC(C)(C)C(=O)N[C@@H](CO)C(=O)N[C@H](C(=O)N[C@@H](C)C(=O)N[C@@H](C)C(=O)NC(C)(C)C(=O)N[C@@H](CCCCN)C(=O)N[C@@H](Cc1ccc(O)cc1)C(=O)N[C@@H](CC(C)C)C(=O)N[C@@H](CCC(N)=O)C(=O)N[C@@H](CO)C(=O)N[C@H](C(=O)N[C@@H](CCCN)C(=O)N[C@@H](CC(N)=O)C(=O)N[C@@H](CCCN)C(=O)NCC(=O)NCC(=O)N1CCC[C@H]1C(=O)N[C@@H](CO)C(=O)N[C@@H](CO)C(=O)NCC(=O)N[C@@H](C)C(=O)N1CCC[C@H]1C(=O)N1CCC[C@H]1C(=O)N1CCC[C@H]1C(=O)N[C@@H](CO)C(=O)O)[C@@H](C)CC)C(C)C)[C@@H](C)O)[C@@H](C)O)C(C)C` [Agonist P390] (Hexanoyl-HSDAVFTDNYT[Orn]LR[Aib]SVAA[Aib]KYLQSI[Orn]N[Orn]GGPSSGAPPPS-OH; C-terminus assumed): the EC50 in data set [1] amounted to 0.12 nM; in data set [4], 0.09 nM. The IC50 in data set [2] was 0.26 nM; in data set [3] it was more than 25000 nM.
In the case of `CCCCCC(=O)N[C@@H](Cc1c[nH]cn1)C(=O)N[C@@H](CO)C(=O)N[C@@H](CC(=O)O)C(=O)N[C@@H](C)C(=O)N[C@H](C(=O)N[C@@H](Cc1ccccc1)C(=O)N[C@H](C(=O)N[C@@H](CC(=O)O)C(=O)N[C@@H](CCC(N)=O)C(=O)N[C@@H](Cc1ccc(O)cc1)C(=O)N[C@H](C(=O)N[C@@H](CCCN)C(=O)N[C@@H](CC(C)C)C(=O)N[C@@H](CCCNC(=N)N)C(=O)NC(C)(C)C(=O)N[C@@H](CCC(N)=O)C(=O)N[C@H](C(=O)N[C@@H](C)C(=O)N[C@@H](C)C(=O)NC(C)(C)C(=O)N[C@@H](CCCN)C(=O)N[C@@H](Cc1ccc(O)cc1)C(=O)N[C@@H](CC(C)C)C(=O)N[C@@H](CCC(N)=O)C(=O)N[C@@H](CO)C(=O)N[C@H](C(=O)N[C@@H](CCCN)C(=O)N[C@@H](CCCN)C(=O)NCC(=O)NCC(=O)N1CCC[C@H]1C(=O)N[C@@H](CO)C(=O)N[C@@H](CO)C(=O)NCC(=O)N[C@@H](C)C(=O)N1CCC[C@H]1C(=O)N1CCC[C@H]1C(=O)N1CCC[C@H]1C(=O)N[C@@H](CO)C(=O)O)[C@@H](C)CC)C(C)C)[C@@H](C)O)[C@@H](C)O)C(C)C` [Agonist P396] (Hexanoyl-HSDAVFTDQYT[Orn]LR[Aib]QVAA[Aib][Orn]YLQSI[Orn][Orn]GGPSSGAPPPS-OH; C-terminus assumed), the values for the half-maximal effective concentration (EC50) in data set [1] and in data set [4] were 0.11 nM and 0.05 nM, respectively. Besides, the results for the IC50 in data set [2], in data set [5] and in data set [3] were 0.26 nM, more than 3000 nM and more than 25000 nM, respectively. Besides, in data set [6], the “Rat Serum Stability (estimated purity in % after overnight incub.)” value was 93.07%.
As for `CCCCCC(=O)N[C@@H](Cc1c[nH]cn1)C(=O)N[C@@H](CO)C(=O)N[C@@H](CC(=O)O)C(=O)N[C@@H](C)C(=O)N[C@H](C(=O)N[C@@H](Cc1ccccc1)C(=O)N[C@H](C(=O)N[C@@H](CCC(=O)O)C(=O)N[C@@H](CCC(N)=O)C(=O)N[C@@H](Cc1ccc(OC)cc1)C(=O)N[C@H](C(=O)N[C@@H](CCCN)C(=O)N[C@@H](CC(C)C)C(=O)N[C@@H](CCCNC(=N)N)C(=O)NC(C)(C)C(=O)N[C@@H](CCC(N)=O)C(=O)N[C@@H](CC(C)C)C(=O)N[C@@H](C)C(=O)N[C@@H](C)C(=O)NC(C)(C)C(=O)N[C@@H](CCCN)C(=O)N[C@@H](Cc1ccc(O)cc1)C(=O)N[C@@H](CC(C)C)C(=O)N[C@@H](CCC(N)=O)C(=O)N[C@@H](CO)C(=O)N[C@H](C(=O)N[C@@H](CCCN)C(=O)N[C@@H](CCCN)C(=O)NCC(=O)NCC(=O)N1CCC[C@H]1C(=O)N[C@@H](CO)C(=O)N[C@@H](CO)C(=O)NCC(=O)N[C@@H](C)C(=O)N1CCC[C@H]1C(=O)N1CCC[C@H]1C(=O)N1CCC[C@H]1C(=O)N[C@@H](CO)C(N)=O)[C@@H](C)CC)[C@@H](C)O)[C@@H](C)O)C(C)C` [Agonist P487] (Hexanoyl-HSDAVFTEQY(Me)T[Orn]LR[Aib]QLAA[Aib][Orn]YLQSI[Orn][Orn]GGPSSGAPPPS-NH2), the EC50 amounted to 0.24 nM in data set [1] and 0.03 nM in data set [4]. Also, the IC50 is 0.64 nM in data set [2] and more than 1000 nM in data set [5]. The “Rat Serum Stability (estimated purity in % after overnight incub.)” value in data set [6] is 76.98%.

Usually EC50 stands for the midpoint of the concentration-response curve. As a reminder, the IC50 is the concentration needed to halve the response being measured.
